The values below come from patent US12593865B2, “Member for flavor inhalation article, flavor inhalation article, phenol scavenger for flavor inhalation article, and method for producing flavor inhalation article” (Japan Tobacco Inc., priority 2019, dated 2026).

Usually logP stands for the decadic logarithm of the partition coefficient of the neutral form, usually between octanol and water. Low values mean a more hydrophilic compound, high ones a more lipophilic compound.

One series is described as follows: Octanol/water partition coefficient Log P at 25° C. As to conditions: n-octanol/water.
`CC1=C(O)C(=O)CC1` [Cyclotene, cyclotene] came in with a lipophilicity (logP) of 0.22.
Consider `CCOC(=O)CCC(=O)OCC` [Diethyl succinate, diethyl succinate, reference compound], for which the lipophilicity (logP) was 1.26.
`Cc1occc(=O)c1O` [Maltol, maltol] had a logP of -0.26.
Compound `COc1cc(CCC(C)=O)ccc1O` [Zingerone, zingerone] yielded a log partition coefficient (logP) of 1.54.

The same series, now with this note: octanol/water, 25° C.
`CC(=O)OCC(COC(C)=O)OC(C)=O` [Triacetin, triacetin, reference compound]: the “Partition Coefficient Log P at 25° C.” value is listed as 0.25.

A further series is described as follows: physchem.
Conditions: not given
For the compound `CC(O)CCO` (centres unmarked) [1,3-butanediol], the log partition coefficient (logP) was -0.74.

The next series is described as follows: Distance between Hansen solubility parameter of the substance and that of phenol, HSP (phenol). Type of series: physicochemical. As to conditions: distance to Hansen solubility parameter of phenol, 25° C. The text has this:
The Hansen solubility parameter is obtained by decomposing solubility parameter δt (SP) introduced by a person into dispersion force contribution term δd between molecules, dipole interaction contribution term δp between molecules, and hydrogen bond contribution term δh between molecules, thereby extending an applicable substance to a polar substance and a substance generating hydrogen bonding. […] The relationship between the solubility parameter δt and the three contribution terms is shown in the following formula: […]
The three parameters of the dispersion force contribution term δd, the dipole interaction contribution term δp, and the hydrogen bond contribution term δh can be regarded as coordinates in a three-dimensional space with the respective parameters as axes. Since various substances have specific HSPs at a specified temperature, HSPs of these substances are represented as points at different positions in the three-dimensional space as shown in FIG. 1. The solubility (compatibility) between given substance i and another substance j is considered to be higher as distance Rij between two points represented by the following formula becomes smaller.
Accordingly, a magnitude of influence of given substance X on phenol selective filtering performance can be evaluated by obtaining a distance between a position of HSP of phenol and a position of HSP of the given substance X in the three-dimensional space. In the present specification and claims, the distance Rij obtained from the Hansen solubility parameter of phenol and the Hansen solubility parameter of the given substance X according to the above formula is defined as HSP (phenol).
For `O=C(O)c1ccccc1` [Benzoic acid, benzoic acid], the “HSP (phenol)” value turned out to be 5.17.
Regarding `CC1=C(O)C(=O)CC1` [Cyclotene, cyclotene], the “HSP (phenol)” value amounted to 5.37.
On to `Cc1occc(=O)c1O` [Maltol, maltol], for which the “HSP (phenol)” value was 6.89.
On the same count and under the same terms, with `CC(O)CO` (centres unmarked) [Propylene glycol, propylene glycol, reference compound] the figure was 8.
Turning to `CC(=O)OCC(COC(C)=O)OC(C)=O` [Triacetin, triacetin, reference compound], the “HSP (phenol)” value came to 7.18.
Regarding `COc1cc(CCC(C)=O)ccc1O` [Zingerone, zingerone], the “HSP (phenol)” value is 5.56.

The next series is described as follows: Dropping point DP of the substance (JIS K2220:2013). The series is classed as physicochemical.
Conditions: not given
The protocol: A substance having a dropping point (DP) of 50° C. or higher is less likely to be fluidized under relatively high temperature storage conditions, e.g., in a vending machine having a high temperature. […] Furthermore, when the phenol scavenger contains a substance that is less likely to leak out from a filter or the like, the substance is likely to remain in the filter or the like, and therefore, a member having excellent phenol selective filtering performance can be realized. […] The dropping point of the substance is preferably in a range from 50° C. to 130° C. When the dropping point of the substance is excessively high, the phenol scavenger containing the substance may not be easily carried by a filter or the like, which is not preferable. The dropping point of the substance can be measured according to JIS K2220:2013.
In general, a “dropping point” is a physical property specified for a substance that is semisolid at room temperature such as grease, but a “dropping point” herein is a physical property specified not only for a substance that is semisolid at room temperature but also for a substance that is solid at room temperature. A dropping point of a substance that is solid at room temperature is, for example, equal to its melting point.
With `O=C(O)c1ccccc1` [Benzoic acid, benzoic acid], the “dropping point DP” value came to 122 °C.
For the compound `CC1=C(O)C(=O)CC1` [Cyclotene, cyclotene], the “dropping point DP” value was found to be 71 °C.
As for `Cc1occc(=O)c1O` [Maltol, maltol], the “dropping point DP” value stood at 78 °C.
Take `CC(=O)OCC(COC(C)=O)OC(C)=O` [Triacetin, triacetin, reference compound]: the “dropping point DP” value came out at 4 °C.
As to `COc1cc(CCC(C)=O)ccc1O` [Zingerone, zingerone], the “dropping point DP” value worked out at 54 °C.

Test in a further series: not given
Conditions: not given
As for `CC(O)CCO` (centres unmarked) [1,3-butanediol], the “Vapor Pressure (Pa) at 25° C.” value was determined as 8 Pa.
For the compound `CC(=O)OCC(COC(C)=O)OC(C)=O` [Triacetin, triacetin, reference compound], the “Vapor Pressure (Pa) at 25° C.” value came to 0 Pa.
The same measure, in the same setting: the value for `COc1cc(CCC(C)=O)ccc1O` [Zingerone, zingerone] was 0 Pa.
